Results on 7 molecules are retold here after patent EP2359864B1, “Targeting Vector-Phospholipid Conjugates” (Bracco Suisse SA, priority 2005, dated 2019).

Where two headings read alike, the source gives them in different places. Numbered stars: 1 amine (or outer) side, 2 acyl side, 3 side chain; on linkers, the order of the positions; unused ones are H or OH. Side chains are listed from the residue outwards. * marks the point of attachment. DSPE = CCCCCCCCCCCCCCCCCC(=O)OC[C@H](COP(=O)(O)OCCN*)OC(=O)CCCCCCCCCCCCCCCCC; Glutaryl = O=C(CCCC(=O)[*:2])[*:1]

The test system of series [1] is KDR receptor expressed on the endothelium of neovessels. Description: In vivo ultrasound imaging of KDR-targeted contrast agents, rabbit VX2 tumor model. Also noted: species or system New Zealand rabbits. The note with it: confirmed using echographic examination of VX2 tumors in rabbits. As for the experimental part:
The ability of ultrasound contrast agents containing KDR binding lipopeptides of the invention to bind to KDR-expressing tissue in vivo was assessed using a known model of angiogenesis: the rabbit VX2 tumor model.
A known model of angiogenic tissue was used to examine the ability of the KDR-targeted ultrasound microbubbles to localize to and provide an image of angiogenic tissue. The VX2 rabbit carcinoma was serially implanted in the dorsal muscle of New Zealand rabbits (Charles River Laboratories, France) weighting 2.5/3kg.
Tumor was surgically removed, placed into McCoy's culture medium containing 10% fetal calf serum, antibiotics, 1.5 mM Glutamax I and cut into small pieces that were rinsed to remove blood and debris. Then tumor pieces (3 to 5 cm^3) were placed in a 50 ml Falcon tube containing 5 mL of complete medium. The tumor tissue was ground (Polytron) until no more solid pieces were visible. The murky fluid was centrifuged for 5 minutes at 300g and the supernatant discarded. Seven mL of fresh medium was added per 5 mL of pellet.
Rabbits received first 0.3 mL of Vetranquil (Acepromazine, Sanofi, injected intramuscularly) and were then anesthetized with an intramuscular injection of Ketaminol®5/Xylazine (Veterinaria AG/Sigma) mixture (50/10 mg/mL, 0.7 mL/kg). One hundred microliters of VX2 tumor homogenate was injected intramuscularly. Fifteen days after implantation of VX2 tumors, animals were anesthetized again with the same mixture, plus subcutaneous injection of 50% Urethane (2mL/kg, s.c.) (Sigma) for imaging experiments. […]
After bubble injection (0.1 µL/kg of gas) using the preparations of either Example 16 or Example 17, insonation was stopped allowing bubbles to accumulate for 25 minutes. […] The amount of free circulating bubbles was then assessed by recording the signal obtained after 20 sec accumulation without insonation. Video frames from VX2 tumor imaging experiments were captured with video-capture and analysed with Image-Pro Plus 2.0 software. […]

The nature of series [2]: Storage stability: formation of lyso- compound (analytical HPLC). The class given is physicochemical. Conditions: after 5 days at room temperature; material after Zorbax C-3 preparative HPLC. Here is the method:
The present invention provides methods for producing dimeric peptide-phospholipid conjugates having very low levels of TFA. While certain methods provide for the synthesis and purification of such conjugates on a gram scale, formation of a lyso- version of the conjugates has been observed upon storage of lyophilized material at 5°C or upon storage of aqueous solutions of the conjugates. It is believed that the lyso- compound is formed by TFA-promoted acid hydrolysis of one of the phospholipid fatty acid esters in dimer peptide-phospholipid conjugates.
Materials used and conditions for the analytical HPLC system include the following: Column: Zorbax 300SB C-3; 3 mm i.d. x 150 mm; 3.5 µm particle; Eluent A : H2O (HPLC Grade with 0.1% TFA by volume); Eluent B: CH3CN (0.1% TFA by volume). Elution: Initial condition: 50% B then a linear gradient of 50-90% B over 3 min, hold at 90% B for 11 min; Flow rate: 0.5 mL/min; Detection: UV at 220 nm. Ret. time: (Compound (21)): 6.77 min, Rt (lyso): 4.06 min.
The fractions that contained (21) were combined and lyophilized to give a white fluffy solid. This was dissolved in water-acetonitrile, then lyophilized again. This provided 70 mg product devoid of the lyso- compound. The recovery was about 70%. After chromatography was completed, the system was washed with 95% B for 15 min at a flow rate of 30 mL/min. […]

In series [3] the test system is KDR. Conditions: as shown in co-pending U.S. Application No. 10/661,156; cited from earlier work.
In series [4] the test system is KDR. Kind of series: Binding affinity of peptide monomers to KDR (statement only). Conditions: statement in the description, no data shown.
Series [5] addresses Full-length KDR on transfected 293H cells (UniProt P35968). Description: static binding of targeted microbubbles (DSPC/DPPG envelope) on KDR-transfected 293H cells, 50% human plasma, microscopy.
Chain of UniProt P35968 (P35968 20-1356 limits assumed): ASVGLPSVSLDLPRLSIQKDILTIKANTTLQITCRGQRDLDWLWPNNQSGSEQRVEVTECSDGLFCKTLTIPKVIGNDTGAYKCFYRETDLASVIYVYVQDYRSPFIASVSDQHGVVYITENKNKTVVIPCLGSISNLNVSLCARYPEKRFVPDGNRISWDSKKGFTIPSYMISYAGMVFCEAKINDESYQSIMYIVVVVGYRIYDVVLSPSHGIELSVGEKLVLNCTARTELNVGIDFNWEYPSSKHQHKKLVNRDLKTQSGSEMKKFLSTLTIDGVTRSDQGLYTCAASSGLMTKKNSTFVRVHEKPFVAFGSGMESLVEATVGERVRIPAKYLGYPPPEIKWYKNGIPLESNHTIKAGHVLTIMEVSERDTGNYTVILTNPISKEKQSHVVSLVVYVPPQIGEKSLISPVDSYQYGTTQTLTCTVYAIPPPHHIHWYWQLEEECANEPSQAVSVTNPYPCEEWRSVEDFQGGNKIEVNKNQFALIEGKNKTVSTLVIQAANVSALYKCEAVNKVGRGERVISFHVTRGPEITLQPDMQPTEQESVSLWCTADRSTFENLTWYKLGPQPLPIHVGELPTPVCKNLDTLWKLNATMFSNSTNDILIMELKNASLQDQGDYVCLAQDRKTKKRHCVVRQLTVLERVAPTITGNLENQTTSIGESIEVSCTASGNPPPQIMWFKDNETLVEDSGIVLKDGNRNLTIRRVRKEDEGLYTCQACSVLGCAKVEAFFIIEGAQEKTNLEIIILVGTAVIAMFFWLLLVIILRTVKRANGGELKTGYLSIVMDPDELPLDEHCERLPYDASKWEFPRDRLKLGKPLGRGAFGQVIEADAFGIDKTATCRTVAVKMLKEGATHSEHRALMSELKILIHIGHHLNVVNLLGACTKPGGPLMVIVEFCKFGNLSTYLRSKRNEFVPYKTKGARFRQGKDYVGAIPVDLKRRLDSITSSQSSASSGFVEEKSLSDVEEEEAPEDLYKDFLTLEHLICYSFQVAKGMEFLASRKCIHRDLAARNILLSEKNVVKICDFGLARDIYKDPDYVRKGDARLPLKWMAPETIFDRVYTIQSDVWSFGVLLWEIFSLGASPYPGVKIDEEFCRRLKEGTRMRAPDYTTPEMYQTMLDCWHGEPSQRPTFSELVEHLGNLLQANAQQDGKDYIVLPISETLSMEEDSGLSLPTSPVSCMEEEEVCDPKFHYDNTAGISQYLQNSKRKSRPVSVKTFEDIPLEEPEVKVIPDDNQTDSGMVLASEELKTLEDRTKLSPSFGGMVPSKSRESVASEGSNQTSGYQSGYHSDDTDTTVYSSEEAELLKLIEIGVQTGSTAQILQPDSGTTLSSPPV
The target is the same in series [6]. Kind of series: static binding of targeted microbubbles (DPPE/DPPG envelope) on KDR-transfected 293H cells minus mock-transfected cells.
The target is the same in series [7]. Description: static binding of targeted microbubbles (DPPE/DPPG envelope) on KDR-transfected 293H cells, 50% human plasma, microscopy.
The target is the same in series [8]. Kind of series: static binding of targeted microbubbles (DSPC/DPPG envelope) on KDR-transfected 293H cells minus mock-transfected cells.

Consider “Ac-AGPTWCEDDWYYCWLFGTGGGK{Ac-VCWEDSWGGEVCFRYDP-GGGK[-Adoa-Adoa-Glut-K(DSPE-PEG2000-NH-Glut)]-NH2 cyclic (2-12) disulfide}-NH2 cyclic (6-13) disulfide [(11)]”, for which the “KDR binding of gas filled microbubbles formulated with the conjugate” value in series [1] is “high KDR binding”.
As to “Ac-AGPTWCEDDWYYCWLFGTGGGK{Ac-VCWEDSWGGEVCFRYDPGGGK[-Adoa-Adoa-Glut-K(DSPE-PEG2000-NH-Glut)]-NH2 cyclic (2-12) disulfide}-NH2 cyclic (6-13) disulfide [(21)]”, in series [2], the “formation of lyso- compound” value is “no lyso- compound formed”.
As to “Ac-AQDWYYDEILSMADQLRHAFLSGGGGGK-NH2 [(32)]”, in the series with KDR [3], the “binding affinity to KDR” value is “high affinity”.
As for “Ac-RAQDWYYDEILSMADQLRHAFLSGGGGGK(DSPE-PEG2000-NH-Glut)-NH2 (not fully specified; N-acetyl, C-amide, DSPE-PEG2000-NH-Glut lipid conjugate) [(1)]”, the “KDR binding of gas filled microbubbles formulated with the conjugate” value in series [1] was “high KDR binding”.
The same measure, in the same setting: under “Ac-AQDWYYDEILSMADQLRHAFLSGGGGGK(DSPE-PEG2000-NH-Glut)-NH2 [(31)]” stands “high KDR binding”.
Regarding `CC[C@H](C)[C@H](NC(=O)[C@H](CCC(=O)O)NC(=O)[C@H](CC(=O)O)NC(=O)[C@H](Cc1ccc(O)cc1)NC(=O)[C@H](Cc1ccc(O)cc1)NC(=O)[C@H](Cc1c[nH]c2ccccc12)NC(=O)[C@H](CC(=O)O)NC(=O)[C@H](CCC(N)=O)NC(=O)[C@H](C)NC(=O)[C@H](CCCNC(=N)N)NC(C)=O)C(=O)N[C@@H](CC(C)C)C(=O)N[C@@H](CO)C(=O)N[C@@H](CCSC)C(=O)N[C@@H](C)C(=O)N[C@@H](CC(=O)O)C(=O)N[C@@H](CCC(N)=O)C(=O)N[C@@H](CC(C)C)C(=O)N[C@@H](CCCNC(=N)N)C(=O)N[C@@H](Cc1c[nH]cn1)C(=O)N[C@@H](C)C(=O)N[C@@H](Cc1ccccc1)C(=O)N[C@@H](CC(C)C)C(=O)N[C@@H](CO)C(=O)NCC(=O)NCC(=O)NCC(=O)NCC(=O)NCC(=O)N[C@@H](CCCCN)C(N)=O` [(2)], the “binding affinity to KDR” value with KDR [4] is on record as “high affinity”.
With Ac-AQDWYYDEILSMADQLRHAFLSGGGGGK([Glutaryl-PEG2000-DSPE])-NH2 [monomeric peptide phospholipid conjugate (31)], the % of surface covered by bound microbubbles (KDR) turned out to be 28% in series [5] and 23.6% in series [7]. Also, the figures for the % of surface covered by bound microbubbles (KDR-Mock) in series [6] and in series [8] were 23.5% and 27.7%, respectively.
